According to the supplement of paper PMC13380429:

Legend:
Details in all cases: 72 h
[1] = system: Caco-2; assay: cell viability relative to DMSO; higher = less toxic
[2] = system: Calu-3; assay: as above
[3] = system: HepG2; assay: as above
[4] = system: U2OS; assay: as above
[5] = system: Vero E6; assay: as above
[6] = system: Caco-2; assay: relative viability EC50 (midpoint between 100% and the lowest measured viability); higher = less toxic
[7] = system: Calu-3; assay: as above
[8] = system: HepG2; assay: as above
[9] = system: U2OS; assay: as above
[10] = system: Vero E6; assay: as above
[11] = system: Caco-2; assay: drug sensitivity score (DSS) for viability; higher = more toxic; extreme values may be limits of the assay
[12] = system: Calu-3; assay: as above
[13] = system: HepG2; assay: as above
[14] = system: U2OS; assay: as above
[15] = system: Vero E6; assay: as above

Row | Compound | cell viability ([1]; 1 nM) [%] | cell viability ([1]; 10 nM) [%] | cell viability ([1]; 100 nM) [%] | cell viability ([1]; 1000 nM) [%] | cell viability ([1]; 10000 nM) [%] | cell viability ([2]; 1 nM) [%] | cell viability ([2]; 10 nM) [%] | cell viability ([2]; 100 nM) [%] | cell viability ([2]; 1000 nM) [%] | cell viability ([2]; 10000 nM) [%] | cell viability ([3]; 1 nM) [%] | cell viability ([3]; 10 nM) [%] | cell viability ([3]; 100 nM) [%] | cell viability ([3]; 1000 nM) [%] | cell viability ([3]; 10000 nM) [%] | cell viability ([4]; 1 nM) [%] | cell viability ([4]; 10 nM) [%] | cell viability ([4]; 100 nM) [%] | cell viability ([4]; 1000 nM) [%] | cell viability ([4]; 10000 nM) [%] | cell viability ([5]; 1 nM) [%] | cell viability ([5]; 10 nM) [%] | cell viability ([5]; 100 nM) [%] | cell viability ([5]; 1000 nM) [%] | cell viability ([5]; 10000 nM) [%] | relative viability EC50 [6] [µM] | relative viability EC50 [7] [µM] | relative viability EC50 [8] [µM] | relative viability EC50 [9] [µM] | relative viability EC50 [10] [µM] | drug sensitivity score [11] | drug sensitivity score [12] | drug sensitivity score [13] | drug sensitivity score [14] | drug sensitivity score [15]
1 | Cc1sc(C)c(C(=O)NC2(c3ccc(C(=O)O)cc3)CC2)c1Cc1ccc(C(F)(F)F)cc1 [MK-2894] | 94.8 | 95.7 | 89 | 101 | 101 | 99.3 | 107 | 103 | 101 | 109 | 104 | 99.9 | 111 | 96.4 | 96.4 | 93.1 | 99.8 | 100 | 102 | 106 | 93.7 | 92.9 | 96.5 | 93.6 | 85.9 | > 10 | > 10 | > 10 | > 10 | > 10 | 0 | 0 | 0 | 0 | 0
2 | COc1ccccc1C(=O)Nc1cccc(NC(=O)c2cccc(C)c2)c1 [ML365] | 97.8 | 101 | 97.4 | 92.8 | 86 | 99 | 98.4 | 96.2 | 98.4 | 94.3 | 113 | 98.7 | 91.6 | 116 | 85.8 | 107 | 102 | 103 | 98.5 | 99 | 102 | 100 | 101 | 98.2 | 95 | > 10 | > 10 | > 10 | > 10 | > 10 | 0.3 | 0 | 0 | 0 | 0
3 | Cc1cc(C)c(NC(=O)C2CC3CCC2C3)c(C)c1 (stereo not given) [ML-213] | 107 | 82.4 | 93.7 | 98.4 | 99.8 | 105 | 96.5 | 92 | 106 | 95.3 | 103 | 104 | 99.9 | 104 | 101 | 105 | 100 | 99.8 | 103 | 104 | 93.3 | 98.4 | 96.3 | 90.3 | 100 | > 10 | > 10 | > 10 | > 10 | > 10 | 0 | 0 | 0 | 0 | 0
4 | S=C=Nc1cccc(NC(=S)NCCCCNC(=S)Nc2cccc(N=C=S)c2)c1 [MRS-2578] | 100 | 91.2 | 99.7 | 98.4 | 101 | 90.7 | 93.6 | 109 | 90.2 | 107 | 107 | 104 | 110 | 97.7 | 103 | 95.9 | 95.8 | 99.5 | 97.2 | 104 | 98.3 | 98.8 | 94.2 | 99.5 | 98.7 | > 10 | > 10 | > 10 | > 10 | > 10 | 0 | 0 | 0 | 0 | 0
